This is an account of results in patent US20250034099A1, “BENZOXAZINONE DERIVATIVES” (CHIA TAI TIANQING PHARMACEUTICAL GROUP CO., LTD., priority 2021, published 2025).

Where two headings read alike, the source gives them in different places.

One data set has as its target T1, MR (Homo sapiens, UniProt P08235).
T1 sequence (P08235 726-984 limits assumed): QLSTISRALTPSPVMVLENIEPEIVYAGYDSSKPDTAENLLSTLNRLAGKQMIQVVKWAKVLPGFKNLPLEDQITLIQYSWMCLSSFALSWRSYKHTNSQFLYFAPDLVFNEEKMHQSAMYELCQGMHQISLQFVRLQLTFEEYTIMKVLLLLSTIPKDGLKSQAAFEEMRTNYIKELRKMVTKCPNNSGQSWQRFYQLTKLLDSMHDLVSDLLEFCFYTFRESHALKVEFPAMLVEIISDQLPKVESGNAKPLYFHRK
The experiment in a line: In vitro evaluation of MR antagonistic activity (HEK293/Gal4/MR cell line, Bright Glo). Conditions: HEK293/Gal4/MR cells, aldosterone final 1 nmol, 24 h incubation. In kind it is cell-based. As for the experimental part:
Purpose of Experiment: to assay the MR antagonistic activity of the compounds
A DMEM medium purchased from BI; fetal bovine serum purchased from Biosera; an HEK293/Gal4/MR cell line provided by Wuhan Heyan Biomedical Technology Co., Ltd.; Bright Glo purchased from Promega; and an EnVision multi-marker analyzer (PerkinElmer).
MR cells were seeded in a white 96-well plate, with […] of cell suspension containing 40000 cells added to each well. The cell plate was incubated in a CO2 incubator overnight.
The compounds to be tested were serially 5-fold diluted to the 8th concentration point with a multi-channel pipette, and the compound concentration ranged from 2 mmol to […]. 38 μL of the medium was added to an intermediate plate, and the compound was added to corresponding wells of the intermediate plate at 2 μL/well. After well mixing, the compound solution was transferred to the cell plate at 10 μL/well, and the cell plate was incubated in a CO2 incubator for 1 h. Aldosterone was diluted to 10 nmol with a medium, i.e., 20 μL of aldosterone with a concentration of 1 μmol was added to 1980 μL of the medium. After well mixing, 10 μL of the aldosterone solution was added to each well of the cell plate except the positive control wells. The cell plate was incubated in a CO2 incubator for 24 h. The final concentration of the compound ranged from 10 μmol to 0.128 nmol, and the final concentration of aldosterone was 1 nmol. After the incubation was completed, the cell supernatant was discarded, and the Bright Glo reagent was added to the cell plate at 100 μL/well. Readings were taken immediately on the EnVision multi-marker analyzer.
The original data were converted to inhibition rates using the following equation: % inhibition=((RFUcmpd−AVER(RFUNeg.Ctrl))/((AVER(RFUPos.Ctrl)−AVER(RFUNeg.Ctrl))×100%. Compound curves were fitted by log(inhibitor) vs. response-Variable slope of Graphpad Prism 5. IC50 values were calculated by the software using the following formula: Y=Bottom+(Top−Bottom)/(1+10^((Log IC50−X)×HillSlope)).

The nature of data set [1]: Pharmacokinetic evaluation in rats after IV and PO administration. The format is in vivo. Conditions: rat, plasma, male SD rats; for bioavailability / clearance / Vd: IV (1 mg/kg); for bioavailability: read-out: Bioavailability F (%); for clearance: read-out: Clearance CL; for Vd: read-out: Tissue distribution Vdss; for AUC(0-t): read-out: Area under plasma concentration-time curve AUC0-last PO; for Cmax: read-out: Peak concentration Cmax. As to the method: SD rats (male, 7-9 weeks old, Beijing Vital River Laboratory Animal Technology Co., Ltd.)
Pharmacokinetic characteristics of the compounds after intravenous injection (IV) and oral administration (PO) in rodents were tested by a standard scheme. The rats were subjected to intravenous injection and oral administration once in the experiment. […]. The vehicle for the intravenous injection was a clear solution of 80% polyethylene glycol 400/20% water, and the vehicle for the oral administration was a homogeneous suspension of 99.9% (0.5% HPMC:Solutol HS15=95:5)/0.1% Tween 80. Four male SD rats were used in this project. Two rats were subjected to intravenous injection, and plasma samples were collected at 0 h (before administration) and 0.083, 0.25, 0.5, 1, 2, 4, 8 and 24 h (after administration); the other two rats were subjected to oral intragastric administration, and plasma samples were collected at 0 h (before administration) and 0.25, 0.5, 1, 2, 4, 8, and 24 h (after administration). Whole blood samples within 24 h were collected. All blood samples were immediately transferred to labeled commercial centrifuge tubes containing K2-EDTA. After blood sample collection, the plasma supernatant was taken by centrifugation at 3200 g at 4° C. for 10 min, immediately placed in dry ice, and then stored at −60° C. or a lower temperature for LC-MS/MS analysis. Plasma concentration-time data were analyzed by a non-compartmental model using a WinNonlin software package (Version 6.3 and above), and pharmacokinetic parameters such as peak concentration (Cmax), clearance (CL), tissue distribution (Vdss), area under plasma concentration-time curve (AUC0-last), bioavailability (F) and the like were calculated.

In the next data set the test system is nuclear receptor. Conditions: background statement; cited from earlier work.

One may read the IC50 as the concentration that gives 50% inhibition. A high value points to weaker potency in that assay. In turn, `Cc1nnn(C[C@H]2COc3cc(F)ccc3N2Cc2ccc3c(c2)NC(=O)CO3)n1` [Compound 14] had an IC50 against MR of 78 nM. Consider `Cc1c(CN2c3ccc(F)cc3OC[C@@H]2Cc2nnn(C)n2)ccc2c1NC(=O)CO2` [Compound 37], for which, in data set [1] (PO (100 mg/kg)), the bioavailability amounted to 142%, the AUC(0-t) came to 116 µM·h and the Cmax was determined as 18.9 µM. Also, in data set [1], the clearance was determined as 47.9 mL/min/kg and the Vd was found to be 4.75 L/kg. Also, it took 43.9 nM to reach half-maximal inhibition at MR (IC50). `CC(=O)S[C@@H]1CC2=CC(=O)CC[C@]2(C)[C@H]2CC[C@@]3(C)[C@@H](CC[C@@]34CCC(=O)O4)[C@H]12` [spironolactone]: the nuclear receptor selectivity result with nuclear receptor was “poor”. For the molecule `Cc1noc(C[C@H]2COc3cc(F)ccc3N2Cc2cc3c(cc2F)OCC(=O)N3)n1` [Compound 19], on MR, the IC50 turned out to be 66 nM. This lies in the double-digit nanomolar range. For `Cc1nc(C[C@H]2COc3cc(F)ccc3N2Cc2cc(Cl)c3c(c2)NC(=O)CO3)no1` [Compound 25], the IC50 against MR is 72 nM. `[2H]C([2H])([2H])n1nnc(C[C@H]2COc3cc(F)ccc3N2Cc2ccc3c(c2)NC(=O)CO3)n1` [Compound 34] displayed an IC50 against MR of 130 nM.

On to `Cc1noc(CC2COc3cc(F)ccc3N2C(C)c2ccc3c(c2)NC(=O)CO3)n1` (single isomer, unassigned) [Compound 35b], for which the 50% inhibitory concentration (IC50) against MR worked out at 76.6 nM. As for `CNC(=O)CC1COc2cc(F)cc(F)c2N1Cc1cc(C)c2c(c1)NC(=O)CO2` (single isomer, unassigned) [Compound 8a], half-maximal inhibition against MR (IC50) required 130 nM. This IC50 lies about 1.7-fold higher than the previous one. In the case of `O=C1COc2cc(F)c(CN3c4ccc(F)cc4OC[C@@H]3Cn3nccn3)cc2N1` [Compound 20], inhibition on MR was half-maximal at 27 nM (IC50). As to `CNC(=O)CC1COc2cc(F)ccc2N1Cc1cc(Cl)c2c(c1)NC(=O)CO2` (stereo not shown) [Compound 4], the midpoint of inhibition at MR, the IC50, lay at 289 nM. This IC50 is about 11-fold higher than that of the molecule before.

The molecule `Cc1noc(C[C@H]2COc3cc(F)ccc3N2Cc2cc(F)c3c(c2)NC(=O)CO3)n1` [Compound 18] had a half-inhibitory concentration (IC50) against MR of 62 nM. For `Cc1noc(C[C@H]2COc3cc(F)ccc3N2Cc2ccc3c(c2)NC(=O)CO3)n1` [Compound 12], inhibition against MR was half-maximal at 27 nM (IC50). Take `Cn1nnc(C[C@H]2COc3cc(F)ccc3N2Cc2cc3c(cc2F)OCC(=O)N3)n1` [Compound 30]: on MR, the IC50 was found to be 68 nM. On MR, `CS(=O)(=O)CC1COc2cc(F)ccc2N1Cc1ccc2c(c1)NC(=O)CO2` (stereo not shown) [Compound 7] showed a half-maximal inhibitory concentration (IC50) of 519 nM. This IC50 is about 7.6-fold higher than that of the molecule before. In turn, `CNC(=O)CC1COc2cc(F)ccc2N1C(C)c1ccc2c(c1)NC(=O)CO2` (stereo not shown) [Compound 6] gave an IC50 at MR of 273 nM. Same read-out and setting: to `CCNC(=O)C[C@H]1COc2cc(F)ccc2N1Cc1ccc2c(c1)NC(=O)CO2` [Compound 9] belongs 403 nM.

In the case of `Cc1noc(C[C@H]2COc3cc(F)ccc3N2Cc2ccc3c(c2C)NC(=O)CO3)n1` [Compound 36], in data set [1] (PO (100 mg/kg)), the bioavailability came to 64.9%, the AUC(0-t) was 29.9 µM·h and the Cmax amounted to 5.62 µM. Besides, in data set [1], the clearance came out at 82.6 mL/min/kg and the Vd was 6.96 L/kg. In addition, half-maximal inhibition against MR (IC50) was put at 13.7 nM. As to `[2H]C([2H])(c1ccc2c(c1)NC(=O)CO2)N1c2ccc(F)cc2OC[C@@H]1Cc1nc(C)no1` [Compound 23], the IC50 at MR is 29 nM. As for `O=C1COc2ccc(CN3c4ccc(F)cc4OC[C@@H]3Cc3c[nH]nn3)c(F)c2N1` [Compound 32], the half-maximal inhibitory concentration (IC50) on MR came out at 50.8 nM.

`Cc1noc(CC2COc3cc(F)ccc3N2C(C)c2ccc3c(c2)NC(=O)CO3)n1` (single isomer, unassigned) [Compound 35a] had an IC50 at MR of 251 nM. This IC50 lies about 4.9-fold higher than the previous one. The molecule `Cn1nnc(C[C@H]2COc3cc(F)ccc3N2Cc2ccc3c(c2)NC(=O)CO3)n1` [Compound 27] registered a concentration for half-maximal inhibition (IC50) at MR of 80 nM. This IC50 is about 3.1-fold lower than that of the molecule before. In turn, `[2H]C([2H])([2H])c1noc(C[C@H]2COc3cc(F)ccc3N2Cc2cc3c(cc2F)OCC(=O)N3)n1` [Compound 29] showed an IC50 on MR of 22 nM.

Turning to `Cn1nnc(C[C@H]2COc3cc(F)ccc3N2Cc2cc(Cl)c3c(c2)NC(=O)CO3)n1` [Compound 26], at MR, inhibition was half-maximal at 32 nM (IC50). Take `Cn1nnc(C[C@H]2COc3cc(F)ccc3N2Cc2ccc3c(c2F)NC(=O)CO3)n1` [Compound 33]: it took 11 nM to reach half-maximal inhibition against MR (IC50). In the case of `Cc1c(CN2c3c(F)cc(F)cc3OCC2CC(N)=O)ccc2c1NC(=O)CO2` (single isomer, unassigned) [Compound 42a], in data set [1] (PO (10 mg/kg)), the bioavailability is 34.6%, the AUC(0-t) was found to be 5.93 µM·h and the Cmax turned out to be 2.74 µM. Moreover, in data set [1], the clearance was 24.4 mL/min/kg and the Vd stood at 1.57 L/kg. The molecule also had an IC50 at MR of 29.1 nM. With `Cn1nnc(C[C@H]2COc3cc(F)ccc3N2Cc2ccc3c(c2Cl)NC(=O)CO3)n1` [Compound 38], the IC50 against MR is 22.6 nM.

`O=C1COc2ccc(CN3c4ccc(F)cc4OC[C@@H]3Cn3nccn3)cc2N1` [Compound 21] yielded an IC50 against MR of 50 nM. Still for that read-out and setting: to `CNC(=O)CC1COc2cc(F)cc(F)c2N1Cc1ccc2c(c1)NC(=O)CO2` (stereo not shown) [Compound 5] belongs 325 nM. For `NC(=O)CC1COc2cc(F)cc(F)c2N1Cc1ccc2c(c1Cl)NC(=O)CO2` (single isomer, unassigned) [Compound 43a], it took 18 nM to reach half-maximal inhibition at MR (IC50). This IC50 lies about 18-fold lower than the previous one.

The molecule `Cc1noc(C[C@H]2COc3cc(F)ccc3N2Cc2cc(Cl)c3c(c2)NC(=O)CO3)n1` [Compound 10] returned an IC50 on MR of 15 nM. The IC50 values of the last two molecules are within 1.5-fold of each other. Still for that read-out and setting: to `Cc1nnn(C[C@H]2COc3cc(F)ccc3N2Cc2cc3c(cc2F)OCC(=O)N3)n1` [Compound 24] belongs 32 nM; to `[2H]C([2H])([2H])c1noc(C[C@H]2COc3cc(F)ccc3N2Cc2ccc3c(c2)NC(=O)CO3)n1` [Compound 28], 35 nM. On the same count and under the same terms, the result for `Cc1noc(C[C@H]2COc3cc(F)ccc3N2Cc2ccc3c(c2F)NC(=O)CO3)n1` [Compound 22] reads 9 nM; that for `O=C1COc2ccc(CN3c4ccc(F)cc4OC[C@@H]3Cc3nc(CO)no3)cc2N1` [Compound 15], 107 nM.
